Laboratory results published in US9326986B2, “Quinazolinone, quinolone and related analogs as sirtuin modulators” (GLAXOSMITHKLINE LLC, priority 2008, dated 2016).

Biological target: T1, SIRT1 (Homo sapiens, UniProt Q96EB6)
T1 sequence (Q96EB6 1-747): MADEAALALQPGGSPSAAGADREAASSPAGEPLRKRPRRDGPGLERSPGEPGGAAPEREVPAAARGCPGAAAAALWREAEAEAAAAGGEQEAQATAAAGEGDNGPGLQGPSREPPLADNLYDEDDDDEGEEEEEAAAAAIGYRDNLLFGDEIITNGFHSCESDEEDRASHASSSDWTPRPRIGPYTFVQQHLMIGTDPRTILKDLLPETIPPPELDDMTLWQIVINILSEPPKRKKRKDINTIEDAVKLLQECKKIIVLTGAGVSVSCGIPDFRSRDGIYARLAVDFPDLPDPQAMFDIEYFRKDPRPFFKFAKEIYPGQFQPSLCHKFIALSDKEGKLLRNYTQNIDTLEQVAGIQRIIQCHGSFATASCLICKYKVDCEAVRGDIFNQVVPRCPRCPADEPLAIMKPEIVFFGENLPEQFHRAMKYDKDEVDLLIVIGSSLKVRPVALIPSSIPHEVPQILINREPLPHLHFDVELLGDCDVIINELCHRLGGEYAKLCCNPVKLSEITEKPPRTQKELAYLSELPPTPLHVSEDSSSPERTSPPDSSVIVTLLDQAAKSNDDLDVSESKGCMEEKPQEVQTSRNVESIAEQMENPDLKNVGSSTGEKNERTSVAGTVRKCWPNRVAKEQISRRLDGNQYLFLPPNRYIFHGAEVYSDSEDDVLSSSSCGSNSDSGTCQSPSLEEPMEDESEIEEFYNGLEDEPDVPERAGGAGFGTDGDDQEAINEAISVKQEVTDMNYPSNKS
Assay: Mass spectrometry based assay to identify modulators of SIRT1 activity (deacetylation of p53-based acetylated peptide)
Assay type: biochemical
Conditions: 10 nM SIRT1, 0.5 μM peptide substrate, 120 μM βNAD+, 25 minutes at 25° C.; for EC1.5 μM: SIRT1 activation
From the text: A mass spectrometry based assay was used to identify modulators of SIRT1 activity. The mass spectrometry based assay utilizes a peptide having 20 amino acid residues as follows: Ac-EE-K(biotin)-GQSTSSHSK(Ac)NleSTEG-K(5TMR)-EE-NH2 (SEQ ID NO: 1) wherein K(Ac) is an acetylated lysine residue and Nle is a norleucine. The peptide is labeled with the fluorophore 5TMR (excitation 540 nm/emission 580 nm) at the C-terminus. The sequence of the peptide substrate is based on p53 with several modifications. In addition, the methionine residue naturally present in the sequence was replaced with the norleucine because the methionine may be susceptible to oxidation during synthesis and purification.
The mass spectrometry assay is conducted as follows: 0.5 μM peptide substrate and 120 μM βNAD^+ is incubated with 10 nM SIRT1 for 25 minutes at 25° C. in a reaction buffer (50 mM Tris-acetate pH 8, 137 mM NaCl, 2.7 mM KCl, 1 mM MgCl2, 5 mM DTT, 0.05% BSA). Test compounds may be added to the reaction as described above. […] After the 25 minute incubation with SIRT1, 10 μL of 10% formic acid is added to stop the reaction. Reactions are sealed and frozen for later mass spec analysis. Determination of the mass of the substrate peptide allows for precise determination of the degree of acetylation (i.e. starting material) as compared to deacetylated peptide (product).
A control for inhibition of sirtuin activity is conducted by adding 1 μL of 500 mM nicotinamide as a negative control at the start of the reaction (e.g., permits determination of maximum sirtuin inhibition). A control for activation of sirtuin activity is conducted using 10 nM of sirtuin protein, with 1 μL of DMSO in place of compound, to determine the amount of deacetylation of the substrate at a given timepoint within the linear range of the assay. This timepoint is the same as that used for test compounds and, within the linear range, the endpoint represents a change in velocity.
For the above assay, SIRT1 protein was expressed and purified as follows. […] The protein was expressed by induction with 1 mM IPTG as an N-terminal His-tag fusion protein at 18° C. overnight and harvested at 30,000×g. Cells were lysed with lysozyme in lysis buffer (50 mM Tris-HCl, 2 mM Tris[2-carboxyethyl]phosphine (TCEP), 10 μM ZnCl2, 200 mM NaCl) and further treated with sonication for 10 min for complete lysis. The protein was purified over a Ni-NTA column (Amersham) and fractions containing pure protein were pooled, concentrated and run over a sizing column (Sephadex S200 26/60 global). The peak containing soluble protein was collected and run on an Ion-exchange column (MonoQ). Gradient elution (200 mM-500 mM NaCl) yielded pure protein. This protein was concentrated and dialyzed against dialysis buffer (20 mM Tris-HCl, 2 mM TCEP) overnight. The protein was aliquoted and frozen at −80° C. until further use.
Sirtuin modulating compounds that activated SIRT1 were identified using the assay described above and are shown below in Tables 1 and 2. The EC1.5 values for the activating compounds are represented by A (EC1.5<1.0 μM), B (EC1.5 1-25 μM), C (EC1.5>25 μM). The percent maximum fold activation is represented by A (Fold activation>200%) or B (Fold Activation<200%).

Row | Structure (SMILES) | % Fold Act. (percent maximum fold activation) | EC1.5 μM
1 | Cn1c(-c2cccc(CN3CCCC3)c2)nc2c(C(=O)Nc3ccccn3)cccc2c1=O [Compound 276] | B (Fold Activation<200%) | B (EC1.5 1-25 μM)
2 | Cn1c(-c2cccc(C(F)(F)F)c2)nc2c(C(=O)Nc3ccccn3)cccc2c1=O [Compound 206] | A (Fold activation>200%) | A (EC1.5<1.0 μM)
3 | Cn1c(-c2cccc(C(F)(F)F)c2)nc2c(C(=O)Nc3ccnc(OCC(O)CO)n3)cccc2c1=O (stereo not drawn) [Compound 355] | A (Fold activation>200%) | A (EC1.5<1.0 μM)
4 | Cn1c(-c2cccc(C(F)(F)F)c2)nc2c(C(=O)Nc3ccc(OCC(O)CO)cc3)cccc2c1=O (stereo not drawn) [Compound 273] | A (Fold activation>200%) | A (EC1.5<1.0 μM)
5 | O=C(Nc1ccccn1)c1cccc2c(=O)cc(-c3cccc(C(F)(F)F)c3)[nH]c12 [Compound 401, 4-oxo-N-(pyridin-2-yl)-2-(3-(trifluoromethyl)phenyl)-1,4-dihydroquinoline-8-carboxamide] | A (Fold activation>200%) | A (EC1.5<1.0 μM)
6 | Cn1c(-c2cccc(C(F)(F)F)c2)nc2c(NC(=O)c3cccc(CN4CCCC4)n3)cccc2c1=O [Compound 333] | A (Fold activation>200%) | A (EC1.5<1.0 μM)
7 | Cn1c(-c2cccc(C(F)(F)F)c2)nc2c(C(=O)Nc3nccs3)cccc2c1=O [Compound 205] | B (Fold Activation<200%) | B (EC1.5 1-25 μM)
8 | Cn1cncc1-c1nc2c(NC(=O)c3cnccn3)cccc2c(=O)n1C [Compound 285] | B (Fold Activation<200%) | B (EC1.5 1-25 μM)
9 | CCc1nnc(NC(=O)c2cccc3c(=O)n(C)c(-c4cccc(C(F)(F)F)c4)nc23)s1 [Compound 294] | A (Fold activation>200%) | A (EC1.5<1.0 μM)
10 | O=C(Nc1cccc2c(=O)[nH]c(-c3ccccc3C(F)F)nc12)c1cnccn1 [Compound 329] | A (Fold activation>200%) | A (EC1.5<1.0 μM)
11 | O=C(Nc1cccc2c(=O)cc(-c3cccc(C(F)(F)F)c3)[nH]c12)c1cccnc1 [Compound 419] | A (Fold activation>200%) | A (EC1.5<1.0 μM)
12 | Cn1c(-c2cccc(C(F)(F)F)c2)nc2c(C(=O)Nc3nncs3)cccc2c1=O [Compound 299] | A (Fold activation>200%) | B (EC1.5 1-25 μM)
13 | Cn1c(-c2cccc(C(F)(F)F)c2)nc2c(C(=O)Nc3ccncc3)cccc2c1=O [Compound 266] | A (Fold activation>200%) | B (EC1.5 1-25 μM)
14 | Cn1c(-c2ccc(C#N)cc2)nc2c(C(=O)Nc3ccccn3)cccc2c1=O [Compound 254] | B (Fold Activation<200%) | C (EC1.5>25 μM)
15 | Cn1c(-c2ccccc2C(F)F)nc2c(NC(=O)c3cnccn3)cccc2c1=O [Compound 314] | A (Fold activation>200%) | A (EC1.5<1.0 μM)
16 | CC(C)n1c(-c2cccc(C(F)(F)F)c2)nc2c(NC(=O)c3cnccn3)cccc2c1=O [Compound 267] | A (Fold activation>200%) | A (EC1.5<1.0 μM)
17 | Cn1c(-c2cccc(C(F)(F)F)c2)nc2c(C(=O)Nc3cncc(OCC(O)CO)n3)cccc2c1=O (stereo not drawn) [Compound 354] | A (Fold activation>200%) | A (EC1.5<1.0 μM)
18 | CCCn1c(-c2cccc(C(F)(F)F)c2)nc2c(NC(=O)c3cnccn3)cccc2c1=O [Compound 233] | A (Fold activation>200%) | A (EC1.5<1.0 μM)
19 | Cn1c(-c2ccncc2)nc2c(NC(=O)c3cnccn3)cccc2c1=O [Compound 279] | B (Fold Activation<200%) | C (EC1.5>25 μM)
20 | O=C(Nc1cnccn1)c1cccc2c(=O)cc(-c3cccc(OC(F)(F)F)c3)[nH]c12 [Compound 442] | A (Fold activation>200%) | A (EC1.5<1.0 μM)
21 | O=C(Nc1nccs1)c1cccc2c(=O)cc(-c3cccc(OC(F)F)c3)[nH]c12 [Compound 428] | A (Fold activation>200%) | A (EC1.5<1.0 μM)
22 | Cn1c(-c2ccncc2)nc2c(C(=O)Nc3ccccn3)cccc2c1=O [Compound 223] | B (Fold Activation<200%) | C (EC1.5>25 μM)
23 | Cn1c(-c2cccc(C(F)(F)F)c2)nc2c(C(=O)Nc3cccc(CN4CCOCC4)n3)cccc2c1=O [Compound 344] | A (Fold activation>200%) | A (EC1.5<1.0 μM)
24 | Cn1c(-c2ccc(CN3CCCC3)cc2)nc2c(C(=O)Nc3ccccn3)cccc2c1=O [Compound 275, 3-methyl-4-oxo-N-(pyridin-2-yl)-2-(4-(pyrrolidin-1-ylmethyl)phenyl)-3,4-dihydroquinazoline-8-carboxamide] | B (Fold Activation<200%) | C (EC1.5>25 μM)
25 | Cn1c(-c2ccccc2OC(F)(F)F)nc2c(C(=O)Nc3ccccn3)cccc2c1=O [Compound 213] | A (Fold activation>200%) | B (EC1.5 1-25 μM)
26 | O=C(Nc1cccc2c(=O)[nH]c(-c3cccc(C(F)F)c3)nc12)c1cnccn1 [Compound 311] | B (Fold Activation<200%) | C (EC1.5>25 μM)
27 | Cn1c(-c2ccccc2C(F)(F)F)nc2c(C(=O)Nc3ccccn3)cccc2c1=O [Compound 212, 3-methyl-4-oxo-N-(pyridin-2-yl)-2-(2-(trifluoromethyl)phenyl)-3,4-dihydroquinazoline-8-carboxamide] | A (Fold activation>200%) | B (EC1.5 1-25 μM)
28 | Cn1cnc(-c2nc3c(C(=O)Nc4ccccn4)cccc3c(=O)n2C)c1 [Compound 261] | B (Fold Activation<200%) | C (EC1.5>25 μM)
29 | O=C(Nc1cccnc1)c1cccc2c(=O)cc(-c3ccccc3C(F)F)[nH]c12 [Compound 438] | A (Fold activation>200%) | B (EC1.5 1-25 μM)
30 | Cn1c(-c2cccc(C(F)(F)F)c2)nc2c(NC(=O)C3CCCC(=O)N3)cccc2c1=O (stereo not drawn) [Compound 365] | A (Fold activation>200%) | B (EC1.5 1-25 μM)
